# Legend:
# MVECs = assay: VEGF-Stimulated Endothelial Cell Proliferation Assay; format: cell-based; details: 72 h, 3 days, Alamar Blue, read-out: EC proliferation (assay 5)
# Experimental: Assay 5: VEGF-Stimulated Endothelial Cell Proliferation Assay
# MVECs are plated to collagen coated 48 well plates at a density of 30 000 cells per well in Earles's Medium M199 (complete with serum). After 4 h the medium is exchanged for medium containing 2% human serum without growth factors (200 μl) and cells are maintained overnight at low serum conditions. The other day the medium is exchanged for the same low serum medium containing in addition test compounds or vehicle in the appropriate concentrations using appropriate controls is exchanged. Five minutes later low serum medium containing 40 ng/ml VEGF is added (200 μl). Cells are cultured for 3 days before mixing with Alamar Blue® (dilution factor of 1: 20) and incubating it for 2 h at 37° C. Measurement of fluorescence intensity is done with the following filters: 528/25 Excitation, 590/35 Emission for the determination of the IC50 concentrations.
# Culture Medium Composition
# Earle's Medium 199 with stable Glutamine (PAA)+5 ml PenStrep (100×; 10000 Units/10 mg/ml) (PAA)+5 ml Non Essential Amino Acids (100×; without L-Glutamine) (PAA)+5 ml Sodium Pyruvat (100 mM) (PAA)+50 ml FCS (PAA)+50 ml HS+1 ml ECGS in Dulbecco's PBS without Ca2++Mg2+(5 mg/ml) (Sigma)+1 ml Heparin (2500 Units/ml)+2.5 ml Biotect-Protection medium (Biochrom AG)=complete Earle's M 199 medium
# Earle's Medium 199 (PAA) with stable Glutamine+5 ml PenStrep (100×; 10000 Units/10 mg/ml) (PAA)+5 ml Non Essential Amino Acids (100×; without L-Glutamine) (PAA)+5 ml Sodium Pyruvat (100 mM) (PAA), 2% HS+2.5 ml Biotect- Protection medium (Biochrom AG)
# Tie2 = Tie2 (Homo sapiens, UniProt Q02763); assay: Tie-2-Kinase HTRF-Assay without kinase preactivation; format: biochemical; design: fusion protein of GST and the intracellular domains of Tie-2; GST; made in house; host or cells: insect cells (Hi-5); details: GST-Tie-2 intracellular domains, 10 μM ATP, read-out: Tie2 activity (assay 2)
# Text: Tie2-inhibitory activity of compounds of the present invention was quantified employing two Tie2 HTRF assay as described in the following paragraphs.
# A recombinant fusion protein of GST and the intracellular domains of Tie-2, expressed in insect cells (Hi-5) and purified by Glutathion-Sepharose affinity chromatography was used as kinase. Alternatively, commercially available GST-Tie2-fusion protein (Upstate Biotechnology, Dundee, Scotland) can be used As substrate for the kinase reaction the biotinylated peptide biotin-Ahx-EPKDDAYPLYSDFG (C-terminus in amid form) was used which can be purchased e.g. from the company Biosynthan GmbH (Berlin-Buch, Germany). Detection of phosphorylated product is achieved specifically by a trimeric detection complex consisting of the phosphorylated substrate, streptavidin-XLent (SA-XLent) which binds to biotin, and Europium Cryptate-labeled anti-phosphotyrosine antibody PT66 which binds to phosphorylated tyrosine.
# Tie-2 (3.5 ng/measurement point) was incubated for 60 min at 22° C. in the presence of 10 μM adenosine-tri-phosphate (ATP) and 1 μM substrate peptide (biotin-Ahx-EPKDDAYPLYSDFG-NH2) with different concentrations of test compounds (0 μM and concentrations in the range 0.001-20 μM) in 5 μl assay buffer [50 mM Hepes/NaOH pH 7, 10 mM MgCl2, 0.5 mM MnCl2, 1.0 mM dithiothreitol, 0.01% NP40, protease inhibitor mixture (“Complete w/o EDTA” from Roche, 1 tablet per 2.5 ml), 1% (v/v) dimethylsulfoxide]. The reaction was stopped by the addition of 5 μl of an aqueous buffer (25 mM Hepes/NaOH pH 7.5, 0.28% (w/v) bovine serum albumin) containing EDTA (90 mM) and the HTRF (Homogeneous Time Resolved Fluorescence) detection reagents streptavidine-XLent (0.2 μM, from Cis Biointernational, Marcoule, France) and PT66-Eu-Chelate (0.3 ng/μl; a europium-chelate labelled anti-phospho-tyrosine antibody from Perkin Elmer).
# The resulting mixture was incubated 1 h at 22° C. to allow the binding of the biotinylated phosphorylated peptide to the streptavidine-XLent and the PT66-Eu-Chelate. Subsequently the amount of phosphorylated substrate peptide was evaluated by measurement of the resonance energy transfer from the PT66-Eu-Chelate to the streptavidine-XLent. Therefore, the fluorescence emissions at 620 nm and 665 nm after excitation at 350 nm was measured in a HTRF reader, e.g. a Rubystar (BMG Labtechnologies, Offenburg, Germany) or a Viewlux (Perkin-Elmer). The ratio of the emissions at 665 nm and at […] was taken as the measure for the amount of phosphorylated substrate peptide. The data were normalised (enzyme reaction without inhibitor=0% inhibition, all other assay components but no enzyme=100% inhibition) and IC50 values were calculated by a 4 parameter fit using an inhouse software.
# Sequence of Tie2 (Q02763 770-1124 limits assumed): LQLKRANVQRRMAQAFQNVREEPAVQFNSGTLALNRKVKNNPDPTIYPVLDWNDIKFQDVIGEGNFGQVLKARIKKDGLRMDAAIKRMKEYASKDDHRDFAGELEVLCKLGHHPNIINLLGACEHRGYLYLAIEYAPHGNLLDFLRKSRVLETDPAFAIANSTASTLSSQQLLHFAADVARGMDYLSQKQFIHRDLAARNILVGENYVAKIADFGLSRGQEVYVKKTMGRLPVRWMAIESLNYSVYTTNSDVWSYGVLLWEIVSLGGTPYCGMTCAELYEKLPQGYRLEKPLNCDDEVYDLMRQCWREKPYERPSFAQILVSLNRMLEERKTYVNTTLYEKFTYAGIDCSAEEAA
SMILES,IC50 (Tie2) [µM],IC50 (MVECs) [µM]
"CC(C)NC(=O)N=S(C)(=O)c1cccc(Nc2ncc(C#Cc3cccc(O)c3)c(N[C@H](C)CO)n2)c1 (mixture of isomers) [Example 1.15, (RS)-S-(3-[4-((R)-2-Hydroxy-1-methyl-ethylamino)-5-(3-hydroxy-phenylethynyl)-pyrimidin-2-ylamino]-phenyl)-N-(isopropylcarbamoyl)-S-methylsulfoximide]",< 0.5,–
"C[C@H](CO)Nc1nc(Nc2cccc(S(C)(=N)=O)c2)ncc1C#Cc1cccc(O)c1 (mixture of isomers) [Example 1.18, (RS)-S-(3-[4-((R)-2-Hydroxy-1-methyl-ethylamino)-5-(3-hydroxy-phenylethynyl)-pyrimidin-2-ylamino]-phenyl)-S-methylsulfoximide]",< 0.5,< 0.5
"Cc1ccccc1C#Cc1cnc(Nc2cccc(S(C)(=N)=O)c2)nc1N[C@H](C)CO (mixture of isomers) [Example 1.19, (RS)-S-(3-[4-((R)-2-Hydroxy-1-methyl-ethylamino)-5-(2-methyl-phenylethynyl)-pyrimidin-2-ylamino]-phenyl)-S-methylsulfoximide]",< 0.5,< 0.5
"Cc1cc(C#Cc2cnc(Nc3cccc(S(C)(=N)=O)c3)nc2N[C@H](C)CO)ccc1F (mixture of isomers) [Example 1.20, (RS)-S-(3-[5-(4-Fluoro-3-methyl-phenyl-ethynyl)-4-((R)-2-hydroxy-1-methyl-ethylamino)-pyrimidin-2-ylamino]-phenyl)-S-methylsulfoximide]",< 0.5,< 0.5
"CCNc1nc(Nc2ccc(S(C)(=N)=O)cc2)ncc1C#Cc1ccc(F)c(C)c1 (racemic) [Example 1.24, (RS)-S-(4-[4-ethylamino-5-(4-fluoro-3-methyl-phenyl-ethynyl)-pyrimidin-2-ylamino]-phenyl)-S-methylsulfoximide]",< 0.5,–
"CCNc1nc(Nc2ccc(S(C)(=N)=O)cc2)ncc1C#Cc1ccc(OC)cc1 (racemic) [Example 1.26, (RS)-S-(4-[4-ethylamino-5-(4-methoxy-phenyl-ethynyl)-pyrimidin-2-ylamino]-phenyl)-S-methylsulfoximide]",< 0.5,–
CCOC(=O)N=S(C)(=O)c1ccc(Nc2ncc(C#Cc3cccc(O)c3)c(N[C@H](C)CO)n2)cc1 (mixture of isomers) [Example 2.7],< 0.5,< 0.5
"CS(=N)(=O)c1cccc(Nc2ncc(C#Cc3cccc(O)c3)cn2)c1 (racemic) [Example 4.2, (RS)—S-(3-[5-(3-hydroxy-phenylethynyl)-pyrimidin-2-ylamino]-phenyl)-S-methylsulfoximide]",< 0.5,–

# Second part, led by results:
IC50 (Tie2) [µM],SMILES,IC50 (MVECs) [µM]
< 0.5,"COc1ccc(C#Cc2cnc(Nc3ccc(S(C)(=N)=O)cc3)nc2N[C@H](C)CO)cc1 (mixture of isomers) [Example 1.1, (RS)—S-(4-[4-((R)-2-Hydroxy-1-methyl-ethylamino)-5-(4-methoxy-phenylethynyl)-pyrimidin-2-ylamino]-phenyl)-S-methylsulfoximide]",< 0.5
< 0.5,"C[C@H](CO)Nc1nc(Nc2ccc(S(C)(=N)=O)cc2)ncc1C#Cc1ccccc1 (mixture of isomers) [Example 1.2, (RS)-S-(4-[4-((R)-2-Hydroxy-1-methyl-ethylamino)-5-(phenylethynyl)-pyrimidin-2-ylamino]-phenyl)-S-methylsulfoximide]",< 0.5
< 0.5,"CCc1ccc(C#Cc2cnc(Nc3ccc(S(C)(=N)=O)cc3)nc2N[C@H](C)CO)cc1 (mixture of isomers) [Example 1.8, (RS)-S-(4-[5-(4-Ethyl-phenylethynyl)-4-((R)-2-hydroxy-1-methyl-ethylamino)-pyrimidin-2-ylamino]-phenyl)-S-methylsulfoximide]",–
< 0.5,"C[C@H](CO)Nc1nc(Nc2ccc(S(C)(=N)=O)cc2)ncc1C#Cc1ccc(F)cc1 (mixture of isomers) [Example 1.9, (RS)-S-(4-[5-(4-Fluoro-phenyl-ethynyl)-4-((R)-2-hydroxy-1-methyl-ethylamino)-pyrimidin-2-ylamino]-phenyl)-S-methylsulfoximide]",< 0.5
< 0.5,"Cc1cc(C#Cc2cnc(Nc3ccc(S(C)(=N)=O)cc3)nc2N[C@H](C)CO)ccc1F (mixture of isomers) [Example 1.13, (RS)-S-(4-[5-(4-Fluoro-3-methyl-phenyl-ethynyl)-4-((R)-2-hydroxy-1-methyl-ethylamino)-pyrimidin-2-ylamino]-phenyl)-S-methylsulfoximide]",< 0.5
< 0.5,"COc1ccc(C#Cc2cnc(Nc3cccc(S(C)(=N)=O)c3)nc2N[C@H](C)CO)cc1 (mixture of isomers) [Example 1.17, (RS)-S-(3-[4-((R)-2-Hydroxy-1-methyl-ethylamino)-5-(4-methoxy-phenylethynyl)-pyrimidin-2-ylamino]-phenyl)-S-methylsulfoximide]",–
< 0.5,Cc1ccccc1C#Cc1cnc(Nc2ccc(S(C)(=N)=O)cc2)nc1N[C@H](C)CO (mixture of isomers) [Example 1.3],< 0.5
< 0.5,Cc1ccc(C#Cc2cnc(Nc3ccc(S(C)(=N)=O)cc3)nc2N[C@H](C)CO)cc1 (mixture of isomers) [Example 1.5],< 0.5

# From US8642611B2, “Alkynylpyrimidines and salts thereof, pharmaceutical compositions comprising same, methods of preparing same and uses of same” (Bayer Intellectual Property GmbH, priority 2007, dated 2014)
